Experimental data: patent publication EP4610269A1, “UROKINASE PLASMINOGEN ACTIVATOR SURFACE RECEPTOR (UPAR) LIGANDS FOR DIAGNOSTIC OR THERAPEUTIC USE” (3B Pharmaceuticals GmbH, priority 2024, dated 2025)
Where a SMILES comes first, the peptide text is derived from it. Bridges are numbered along the chain shown (N, C = ends). [ ]: non-standard residue; d: D form. The star is where a group is joined. DOTA = O=C(O)CN1CCN(CC(=O)O)CCN(CC(=O)*)CCN(CC(=O)O)CC1; Phe(2-Cl) = N[C@@H](Cc1ccccc1Cl)C(=O)O; Dopa = N[C@@H](Cc1ccc(O)c(O)c1)C(=O)O; cisHyp = O=C(O)[C@@H]1C[C@H](O)CN1; Hyp = O=C(O)[C@@H]1C[C@@H](O)CN1; NMeF = CN[C@@H](Cc1ccccc1)C(=O)O; 3Pal = N[C@@H](Cc1cccnc1)C(=O)O; Pentanoyl(4-Me) = CC(C)CCC(=O)*; Cit = NC(=O)NCCC[C@H](N)C(=O)O; Pen = CC(C)(S)[C@H](N)C(=O)O; Nle = CCCC[C@H](N)C(=O)O; Dab = NCC[C@H](N)C(=O)O; Nva = CCC[C@H](N)C(=O)O; Pentanoyl = CCCCC(=O)*; Ava = NCCCCC(=O)O

What was measured:
[1] = molecular target: T1, uPAR-expressing HEC-265 human endometrial adenocarcinoma cells (Homo sapiens, UniProt Q03405); assay: Competitive FACS binding assay; conditions: pIC50 category of FACS binding
T1 construct: Cell surface uPAR-expressing HEC-265 human endometrial adenocarcinoma cells; host or cells: HEC-265
T1 sequence (Q03405 23-335): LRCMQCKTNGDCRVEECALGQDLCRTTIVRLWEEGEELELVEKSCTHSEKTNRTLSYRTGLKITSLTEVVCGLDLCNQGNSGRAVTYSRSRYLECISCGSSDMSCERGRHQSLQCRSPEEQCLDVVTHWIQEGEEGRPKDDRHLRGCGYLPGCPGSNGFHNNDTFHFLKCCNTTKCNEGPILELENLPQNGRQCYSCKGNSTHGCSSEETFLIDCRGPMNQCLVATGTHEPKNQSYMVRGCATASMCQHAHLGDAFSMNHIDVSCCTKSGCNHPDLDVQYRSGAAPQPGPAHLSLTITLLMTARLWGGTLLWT
Procedure, shortened: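 HEC-265 cells incubated 1 h at 4 °C with 10 nM biotinylated uPAR peptide tracer plus increasing test compound, then stained with APC-streptavidin on ice. Median APC fluorescence by flow cytometry; 4PL fit gives pIC50.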

[2] = molecular target: T2, human uPAR (uPAR-Fc) (Homo sapiens, UniProt Q03405); assay: Surface plasmon resonance (SPR) assay, single cycle kinetics; assay type: binding; conditions: pKD category for uPAR SPR activity assay; uPAR-Fc on Protein A-Chip, single cycle kinetics, 25°C; read-out: pKD CAT (converted)
T2 construct: comprising amino acids Leu23-Arg303 according to UniProt entry Q03405.1; purchased R&D Systems 10378-UK-100
T2 sequence (Q03405 23-303): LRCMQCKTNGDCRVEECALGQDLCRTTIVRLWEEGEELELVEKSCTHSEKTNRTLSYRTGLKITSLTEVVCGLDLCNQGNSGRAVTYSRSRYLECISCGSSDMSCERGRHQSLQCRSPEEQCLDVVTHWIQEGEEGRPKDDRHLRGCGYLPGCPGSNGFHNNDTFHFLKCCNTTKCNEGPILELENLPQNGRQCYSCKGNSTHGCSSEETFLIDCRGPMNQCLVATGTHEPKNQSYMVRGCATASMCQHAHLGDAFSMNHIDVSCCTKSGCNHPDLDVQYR
Procedure, shortened: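 uPAR-Fc (Leu23-Arg303 extracellular domains, human IgG1 Fc) captured on Protein A chip to ~2000 RU; single-cycle kinetics at 25°C in HEPES running buffer pH 7.4 with 0.1% DMSO. KD from double-referenced sensorgrams fitted to 1:1 Langmuir model, reported as pKD.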

Row | Structure (SMILES) | IC50 [1] [nM] | Kd [2] [nM]
1 | CCCCC(=O)N[C@H]1CCNC(=O)CC[C@@H](C(N)=O)NC(=O)[C@H](CCC)NC(=O)[C@H]([C@@H](C)CC)NC(=O)[C@@H]2C[C@@H](O)CN2C(=O)[C@@H]2CCCN2C(=O)[C@H](Cc2ccccc2)NC(=O)[C@H](Cc2ccc(O)cc2)NC(=O)[C@H](CCC(N)=O)NC(=O)[C@H](CCCNC(=N)N)NC1=O [UPAR-390, Pent-[Dab-Arg-Gln-Tyr-Phe-Pro-Hyp-Ile-Nva-Glu]-NH2] (Pentanoyl-[Dab]RQYFP[Hyp]I[Nva]E-NH2; lactam 1-10) | ≥ 126 | > 100
2 | CC[C@H](C)[C@@H]1NC(=O)[C@@H](C)NC(=O)[C@@H]2CCCN2C(=O)[C@H](Cc2ccccc2)NC(=O)[C@H](Cc2ccc(O)cc2)NC(=O)[C@H](CCCCNC(=O)CN2CCN(CC(=O)O)CCN(CC(=O)O)CCN(CC(=O)O)CC2)NC(=O)[C@@H](CC(=O)O)NC(=O)[C@@H](NC(=O)[C@H](CC(C)C)NC(=O)[C@H](CC(=O)O)NC(C)=O)CSSC[C@@H](C(N)=O)NC(=O)[C@H](CC(C)C)NC1=O [UPAR-392, Ac-Asp-Leu-[Cys-asp-Lys(DOTA)-Tyr-Phe-Pro-ala-Ile-Leu-Cys]-NH2] (Ac-DLC[dD]K(DOTA)YFP[dA]ILC-NH2; disulfide 3-12) | ≥ 126 | > 100
3 | CC[C@H](C)[C@@H]1NC(=O)[C@@H](C)NC(=O)[C@@H]2CCCN2C(=O)[C@H](Cc2ccccc2)NC(=O)[C@H](Cc2ccc(O)cc2)NC(=O)[C@H](CCC(N)=O)NC(=O)[C@H](CCCNC(N)=O)NC(=O)[C@@H](NC(=O)CCCCN)CSSC[C@@H](C(N)=O)NC(=O)[C@H](CC(C)C)NC1=O [UPAR-394, H-Ava-[Cys-Cit-Gln-Tyr-Phe-Pro-ala-Ile-Leu-Cys]-NH2] (H-[Ava]C[Cit]QYFP[dA]ILC-NH2; disulfide 2-11) | ≥ 126 | > 100
4 | CCCCC(=O)N[C@@H]1C(=O)N[C@@H](CCCNC(N)=O)C(=O)N[C@@H](CCC(N)=O)C(=O)N[C@@H](Cc2ccc(O)cc2)C(=O)N[C@@H](Cc2ccccc2)C(=O)N2CCC[C@H]2C(=O)N2C[C@H](O)C[C@H]2C(=O)N[C@@H]([C@@H](C)CC)C(=O)N[C@@H](CCC)C(=O)N[C@H](C(N)=O)CSSC1(C)C [UPAR-397, Pent-[Pen-Cit-Gln-Tyr-Phe-Pro-Hyp-Ile-Nva-Cys]-NH2] (Pentanoyl-[Pen][Cit]QYFP[Hyp]I[Nva]C-NH2; disulfide 1-10) | ≤ 10 | < 1.58
5 | CCCCC(=O)N[C@H]1CSSC[C@@H](C(N)=O)NC(=O)[C@H](CCC)NC(=O)[C@H]([C@@H](C)CC)NC(=O)[C@@H]2C[C@@H](O)CN2C(=O)[C@@H]2CCCN2C(=O)[C@H](Cc2ccccc2)N(C)C(=O)[C@H](Cc2ccc(O)cc2)NC(=O)[C@H](CCCCNC(=O)CN2CCN(CC(=O)O)CCN(CC(=O)O)CCN(CC(=O)O)CC2)NC(=O)[C@H](CCCNC(N)=O)NC1=O [UPAR-398, Pent-[Cys-Cit-Lys(DOTA)-Tyr-Nmf-Pro-Hyp-Ile-Nva-Cys]-NH2] (Pentanoyl-C[Cit]K(DOTA)Y[NMeF]P[Hyp]I[Nva]C-NH2; disulfide 1-10) | ≥ 126 | > 100
6 | CCCCC(=O)N[C@H]1CSSC[C@@H](C(N)=O)NC(=O)[C@H](CCC)NC(=O)[C@H]([C@@H](C)CC)NC(=O)[C@@H]2C[C@@H](O)CN2C(=O)[C@@H]2CCCN2C(=O)[C@H](Cc2ccccc2)NC(=O)[C@H](Cc2ccc(O)c(O)c2)NC(=O)[C@H](CCCCNC(=O)CN2CCN(CC(=O)O)CCN(CC(=O)O)CCN(CC(=O)O)CC2)NC(=O)[C@H](CCCNC(N)=O)NC1=O [UPAR-399, Pent-[Cys-Cit-Lys(DOTA)-Dopa-Phe-Pro-Hyp-Ile-Nva-Cys]-NH2] (Pentanoyl-C[Cit]K(DOTA)[Dopa]FP[Hyp]I[Nva]C-NH2; disulfide 1-10) | ≤ 10 | < 1.58
7 | CCCCC(=O)N[C@H]1CSSC[C@@H](C(N)=O)NC(=O)[C@H](CCC)NC(=O)[C@H]([C@@H](C)CC)NC(=O)[C@@H]2C[C@@H](O)CN2C(=O)[C@H](Cc2ccccc2)NC(=O)[C@H](Cc2ccccc2)NC(=O)[C@H](Cc2ccc(O)cc2)NC(=O)[C@H](CCC(N)=O)NC(=O)[C@H](CCCNC(=N)N)NC1=O [UPAR-400, Pent-[Cys-Arg-Gln-Tyr-Phe-Phe-Hyp-Ile-Nva-Cys]-NH2] (Pentanoyl-CRQYFF[Hyp]I[Nva]C-NH2; disulfide 1-10) | ≤ 10 | 1.58 to 10
8 | CCCCC(=O)N[C@H]1CSSC[C@@H](C(N)=O)NC(=O)[C@H](CCC)NC(=O)[C@H]([C@@H](C)CC)NC(=O)[C@@H]2C[C@@H](O)CN2C(=O)[C@@H]2CCCN2C(=O)[C@H](Cc2ccccc2)NC(=O)[C@H](Cc2c[nH]c3ccccc23)NC(=O)[C@H](CCC(N)=O)NC(=O)[C@H](CCCNC(=N)N)NC1=O [UPAR-401, Pent-[Cys-Arg-Gln-Trp-Phe-Pro-Hyp-Ile-Nva-Cys]-NH2] (Pentanoyl-CRQWFP[Hyp]I[Nva]C-NH2; disulfide 1-10) | ≤ 10 | < 1.58
9 | CC[C@H](C)[C@@H]1NC(=O)[C@@H](C)NC(=O)[C@@H]2CCCN2C(=O)[C@H](Cc2ccccc2)NC(=O)[C@H](Cc2ccc(O)cc2)NC(=O)[C@H](CCC(N)=O)NC(=O)[C@H](CCCNC(N)=O)NC(=O)[C@@H](NC(=O)CCC(C)C)CSSC[C@@H](C(N)=O)NC(=O)[C@H](C)NC1=O [UPAR-402, iHex-[Cys-Cit-Gln-Tyr-Phe-Pro-ala-Ile-Ala-Cys]-NH2] ({Pentanoyl(4-Me)}-C[Cit]QYFP[dA]IAC-NH2; disulfide 1-10) | 12.6 to 31.6 | 1.58 to 10
10 | CC[C@H](C)[C@@H]1NC(=O)[C@H]([C@@H](C)CC)NC(=O)[C@@H](C)NC(=O)[C@@H]2CCCN2C(=O)[C@H](Cc2ccccc2)NC(=O)[C@H](Cc2ccc(O)cc2)NC(=O)[C@H](CCC(N)=O)NC(=O)[C@H](CCCNC(N)=O)NC(=O)[C@@H](NC(=O)CCC(C)C)CSSC[C@@H](C(N)=O)NC1=O [UPAR-405, iHex-[Cys-Cit-Gln-Tyr-Phe-Pro-ala-Ile-Ile-Cys]-NH2] ({Pentanoyl(4-Me)}-C[Cit]QYFP[dA]IIC-NH2; disulfide 1-10) | 12.6 to 31.6 | 1.58 to 10
11 | CCCC[C@@H]1NC(=O)[C@H](CCCNC(=N)N)NC(=O)[C@@H](NC(=O)[C@H](CC(C)C)NC(=O)[C@H](CC(=O)O)NC(C)=O)CSSC[C@@H](C(N)=O)NC(=O)[C@H](CC(C)C)NC(=O)[C@H]([C@@H](C)CC)NC(=O)[C@@H](C)NC(=O)[C@@H]2CCCN2C(=O)[C@H](Cc2ccccc2)NC(=O)[C@H](Cc2ccc(O)cc2)NC1=O [UPAR-406, Ac-Asp-Leu-[Cys-Arg-Nle-Tyr-Phe-Pro-ala-Ile-Leu-Cys]-NH2] (Ac-DLCR[Nle]YFP[dA]ILC-NH2; disulfide 3-12) | ≤ 10 | < 1.58

Further lines, results first:

Row | IC50 [1] [nM] | Kd [2] [nM] | Structure (SMILES)
12 | ≤ 10 | 1.58 to 10 | CCCCC(=O)N[C@H]1CSSC[C@@H](C(N)=O)NC(=O)[C@H](CCC)NC(=O)[C@H]([C@@H](C)CC)NC(=O)[C@@H]2C[C@@H](O)CN2C(=O)[C@@H]2C[C@H](O)CN2C(=O)[C@H](Cc2ccccc2)NC(=O)[C@H](Cc2ccc(O)cc2)NC(=O)[C@H](CCCCNC(=O)CN2CCN(CC(=O)O)CCN(CC(=O)O)CCN(CC(=O)O)CC2)NC(=O)[C@H]([C@@H](C)O)NC1=O [UPAR-388, Pent-[Cys-Thr-Lys(DOTA)-Tyr-Phe-Chy-Hyp-Ile-Nva-Cys]-NH2] (Pentanoyl-CTK(DOTA)YF[cisHyp][Hyp]I[Nva]C-NH2; disulfide 1-10)
13 | ≤ 10 | < 1.58 | CCCCC(=O)N[C@H]1CSSC[C@@H](C(N)=O)NC(=O)[C@H](CCC)NC(=O)[C@H]([C@@H](C)CC)NC(=O)[C@@H]2C[C@@H](O)CN2C(=O)[C@@H]2CCCN2C(=O)[C@H](Cc2ccccc2)NC(=O)[C@H](Cc2ccc(O)cc2)NC(=O)[C@H](CCC(N)=O)NC(=O)[C@H](CC(C)C)NC1=O [UPAR-391, Pent-[Cys-Leu-Gln-Tyr-Phe-Pro-Hyp-Ile-Nva-Cys]-NH2] (Pentanoyl-CLQYFP[Hyp]I[Nva]C-NH2; disulfide 1-10)
14 | ≤ 10 | < 1.58 | CC[C@H](C)[C@@H]1NC(=O)[C@@H](C)NC(=O)[C@@H]2CCCN2C(=O)[C@H](Cc2ccccc2)NC(=O)[C@H](Cc2cccnc2)NC(=O)[C@H](CCC(N)=O)NC(=O)[C@H](CCCNC(N)=O)NC(=O)[C@@H](NC(=O)CCC(C)C)CSSC[C@@H](C(N)=O)NC(=O)[C@H](CC(C)C)NC1=O [UPAR-393, iHex-[Cys-Cit-Gln-Mpa-Phe-Pro-ala-Ile-Leu-Cys]-NH2] ({Pentanoyl(4-Me)}-C[Cit]Q[3Pal]FP[dA]ILC-NH2; disulfide 1-10)
15 | ≤ 10 | < 1.58 | CCCCC(=O)N[C@H]1CSSC[C@@H](C(N)=O)NC(=O)[C@H](CCC)NC(=O)[C@H]([C@@H](C)CC)NC(=O)[C@@H]2C[C@@H](O)CN2C(=O)[C@@H]2CCCN2C(=O)[C@H](Cc2ccccc2)NC(=O)[C@H](Cc2ccccc2Cl)NC(=O)[C@H](CCC(N)=O)NC(=O)[C@H](CCCNC(=N)N)NC1=O [UPAR-395, Pent-[Cys-Arg-Gln-Ocf-Phe-Pro-Hyp-Ile-Nva-Cys]-NH2] (Pentanoyl-CRQ[Phe(2-Cl)]FP[Hyp]I[Nva]C-NH2; disulfide 1-10)
16 | ≤ 10 | < 1.58 | CCCCC(=O)N[C@H]1CSSC[C@@H](C(N)=O)NC(=O)[C@H](CC(C)C)NC(=O)[C@H]([C@@H](C)CC)NC(=O)[C@@H]2CCCN2C(=O)[C@@H]2CCCN2C(=O)[C@H](Cc2ccccc2)NC(=O)[C@H](Cc2ccc(O)cc2)NC(=O)[C@H](CCCCNC(=O)CN2CCN(CC(=O)O)CCN(CC(=O)O)CCN(CC(=O)O)CC2)NC(=O)[C@H](CCCNC(N)=O)NC1=O [UPAR-396, Pent-[Cys-Cit-Lys(DOTA)-Tyr-Phe-Pro-Pro-Ile-Leu-Cys]-NH2] (Pentanoyl-C[Cit]K(DOTA)YFPPILC-NH2; disulfide 1-10)
